Data on four molecules can be found in PMC10344917, “Affinity and cooperativity modulate ternary complex formation to drive targeted protein degradation” (Nature Communications, 2023).

The target of one data set is T1, VHL/EloB/EloC (VBC) (Homo sapiens, UniProt P40337).
T1 construct: VHL (54-213), ElonginB (17-112) ElonginC (1-104); made in house
The experiment in a line: SPR binary binding of PROTAC to VBC-functionalized surface. The procedure: (§1) SPR experiments were performed on a Biacore 8 K or T200 instrument (Cytiva). […] The running buffer during immobilization was PBS with 0.005% P20. Either high-density (3000-4000 RU) or low-density (300-400 RU) VBC-functionalized surfaces were created, followed by equilibration in the running buffer for 3 h.
PROTACs (10 mM stocks in 100% DMSO) were diluted to 400 nM in a running buffer (20 mM Tris pH 7.5, 200 mM NaCl, 0.02% P20). This stock solution was then serially diluted in the running buffer containing final 2% DMSO. […] For SMARCA2 analysis, biotinylated proteins were introduced on a Series S streptavidin (SA) sensor chip at high-density (3000-4000 RU).
(§2) Raw sensorgrams were processed by performing double reference subtraction, solvent correction, and analysis was done using Biacore Insight Evaluation Software. Kinetic analysis was performed by fitting data to a 1:1 Langmuir interaction model and a steady-state affinity model was used to evaluate equilibrium binding affinity.

Data set [1] concerns the target T2, BRD4 (Homo sapiens, UniProt O60885).
T2 construct: endogenous in cells; host or cells: A375
As to the kind of experiment: BRD4 degradation, MSD assay, dose response. The note with it: A375 cells; for AUC (area under the dose-response curve): BRD4 MSD assay, 4 h; for DC50: BRD4 degradation; for DC50 / Dmax: MSD assay, 4 h timepoint; for Dmax: A-375, BRD4 degraded. The class given is cell-based. More on the design: AUC (area under the dose-response curve): unit not given beside the values. The protocol:
A375 cells were treated with SMARCA2 or BRD4 degraders for 2 h (4 h for BRD4) and generated lysates. SMARCA2 or BRD4 protein was measured with a variation of a sandwich ELISA that was assembled from commercially available antibodies as well as reagents and instrumentation procured from Meso Scale Discovery (MSD). Degradation parameter, DC50, is not suitable for PROTACs that induce partial/incomplete DR curves at a fixed time point; maximum drop in target protein level (Dmax) >>0. Conversely, the area under the curve (AUC) can be calculated as a degradation activity parameter for any DR curve, and it encompasses both the degradation potency (i.e., DC50) and efficacy (i.e., Dmax) of PROTACs.
A 1:3 compound dose-response titration was diluted in growth media (1:20), added to appropriate wells of a cell culture plate (1:10) and then assay plates were incubated at 37 °C, 5% CO2.
Plates were washed with 300 µL per well MSD wash buffer (MSD R61TX-1) between each step. Following the last incubation, plates were washed with MSD wash buffer then 150 µL of MSD read buffer (MSD R92TC-2) was added to each well. Plates were immediately read on a MSD plate reader (MSD Sector Imager 6000).
(§3) MSD electrochemiluminescence signals were subtracted by the average background signal from wells with lysis buffer alone. Normalized MSD values (POC) for individual compound treated wells were acquired by dividing background-subtracted assay signal by signal from vehicle control wells (cells + 0.1% DMSO) and multiplying by 100. This POC data was graphed using a nonlinear regression curve fit xy analysis and a log(inhibitor) vs response —variable slope (four parameter) model for dose response curves (Graphpad Prism 9, San Diego, CA, USA). To calculate area under the curve, all points on the curve were connected and vertical lines were drawn from each point down to y = 0, generating a series of trapezoids. The area of each trapezoid was determined using the equation A = (1/2)(h)(b1 + b2), where h = 1 (distance between points), b1 = POC of the first point and b2 = POC of the second point. The sum of all trapezoids provides an approximate area under the curve (AUC). For half-life (t1/2) determination in time course studies, a one-phase decay model was used for curve fitting and the time at which the curve crossed 50 POC was determined through interpolation (Graphpad Prism 9, San Diego, CA, USA).

The next data set addresses T3, BRD4-NanoLuc (Homo sapiens, UniProt O60885).
T3 construct: expressed in transfected cells; host or cells: HEK293
As to the kind of experiment: NanoBRET target engagement assay, live and permeabilized HEK293 cells (BRD4). Format: cell-based. Particulars: for Availability Index: RBA test cmpd / RBA of JQ1 benchmark, surrogate for permeability; for IC50: BRD4 NanoBRET TE. The protocol:
We employed a NanoBRET-based target engagement (TE) assay as reported earlier^7 for evaluating PROTACs relative permeability. In summary, live and permeabilized HEK293 cells with SMARCA2 or BRD4-NanoLuc were used for measuring IC50 values of different PROTACs. The relative shift in the IC50 was evaluated as relative binding affinity (RBA) by taking the ratio of IC50 values of live and permeabilized cells. Availability index (AI), which is a surrogate for permeability can be calculated by taking a ratio of RBA of compounds to permeable benchmark molecules.
Relative Binding Affinity (RBA) = Live-cell TE IC50 / Permeabilized-cell TE IC50
Availability Index (AI) = RBAtest cmpd / RBApermeable benchmark
Availability Index (AI) greater than one is indicative of reduced permeability compared to the benchmark.

Another data set deals with T4, BRD4^BD2 (Homo sapiens, UniProt O60885).
T4 construct: ternary complex formation with both bromodomains, BRD4^BD1 and BRD4^BD2, independently; made in house
As to the kind of experiment: SPR binary binding of PROTAC to BRD4^BD2-functionalized surface. Particulars: 1:1 Langmuir binding model, SD N=2.

Data set [2] concerns the target T2, BRD4. As to the kind of experiment: BRD4 degradation time course in A375 cells (MSD). The class given is cell-based. The note with it: single concentration at or near maximal activity.
From the text: To measure the rate of protein degradation, we treated A375 cells with a single concentration of each PROTAC and measured the decrease in target abundance over time as shown in Figs. 4b and5b.
as §3

The target in data set [3] is T5, VBC / BRD4^BD2 ternary complex (Homo sapiens, UniProt O60885+P40337).
T5 construct: VHL (54-213), ElonginB (17-112) ElonginC (1-104); ternary complex formation with both bromodomains, BRD4^BD1 and BRD4^BD2, independently; His6 (N); made in house
As to the kind of experiment: SPR ternary complex binding, VBC surface with preformed PROTAC/BRD4 BD2 complex. The note with it: for Kd: SPR, VHL, PROTAC, error SEM, N = 3, read-out: KLPT (ternary complex binding affinity). The procedure:
as §1
(§4) PROTACs (10 mM in 100% DMSO) were initially prepared at 200 nM in a running buffer (20 mM Tris pH 8.0, 250 mM NaCl, 1 mM TCEP, 0.01% P20, 0.2 mg/ml BSA) with a concentration of 2% DMSO. This solution was mixed at 1:1 ratio with a solution of 5 μM of the SMARCA2 or BRD4 bromodomain protein in the running buffer. […] For ternary experiments, solutions were injected sequentially in single-cycle kinetic format without regeneration (contact time 60 s, flow rate 80 μL/min, dissociation time 300 s) using a stabilization period of 60 s and syringe wash (50% DMSO) between injections onto a low-density VBC-functionalized surface.
as §2

For data set [4], the target named is T6, VBC / BRD4^BD1 ternary complex (Homo sapiens, UniProt O60885+P40337).
T6 construct: VHL (54-213), ElonginB (17-112) ElonginC (1-104); BRD4 (44-168); His6 (N, cleaved yes); made in house
The experiment in a line: SPR ternary complex binding, VBC surface with preformed PROTAC/BRD4 BD1 complex. The note with it: for Kd: SPR, VHL, PROTAC, error SEM, N = 3, read-out: KLPT (ternary complex binding affinity). The protocol: as §1, §4, §2

Where [5] appears, read: SPR, error SEM, N = 3, read-out: KLP (binary binding affinity between E3 ligase VHL and PROTAC).
The mark [6] stands for this setting: live HEK293 cells, read-out: Live-Cell TE.
Where [7] appears, read: permeabilized HEK293 cells, read-out: Permeabilized-Cell TE.

Read-outs that look alike come from different tables or passages of the source.

Usually DC50 stands for the midpoint of the concentration-degradation curve. Consider `Cc1ncsc1-c1ccc(CNC(=O)[C@@H]2C[C@@H](O)CN2C(=O)[C@@H](NC(=O)COCCOCCOCCOCc2cn(CCNC(=O)C[C@@H]3N=C(c4ccc(Cl)cc4)c4c(sc(C)c4C)-n4c(C)nnc43)nn2)C(C)(C)C)cc1` [Compound 15, (2S,4R)-1-((S)-15-(tert-butyl)-1-(1-(2-(2-((S)-4-(4-chlorophenyl)-2,3,9-trimethyl-6H-thieno[3,2-f][1,2,4]triazolo[4,3-a][1,4]diazepin-6-yl)acetamido)ethyl)-1H-1,2,3-triazol-4-yl)-13-oxo-2,5,8,11-tetraoxa-14-azahexadecan-16-oyl)-4-hydroxy-N-(4-(4-methylthiazol-5-yl)benzyl)pyrrolidine-2-carboxamide], for which the Kd was 0.031 ± 0.004 µM on VHL/EloB/EloC (VBC) (setting [5]), 0.0162 ± 0.0026 µM on BRD4^BD2, 0.039 ± 0.005 µM in data set [3] and 0.0265 ± 0.004 µM in data set [4]. Further, the “AUC (area under the dose-response curve)” value at BRD4 [1] is 733. Besides, the DC50 at BRD4 [1] is more than 10 µM. Also, the “Availability Index” value on BRD4-NanoLuc worked out at 34.23. The figures for the IC50 at BRD4-NanoLuc (setting [6]) and at BRD4-NanoLuc (setting [7]) were 3.92 µM and 0.11 µM, respectively. For the same molecule, the “Initial Degradation Rate” value at BRD4 [2] is given as 0.21 %/min. Also, the “α (cooperativity, KLP/KLPT)” value in data set [3] is 0.8; in data set [4], 1.2.

`Cc1ncsc1-c1ccc(CNC(=O)[C@@H]2C[C@@H](O)CN2C(=O)[C@@H](NC(=O)COCCOCCOCCOCCOCc2cn(CCNC(=O)C[C@@H]3N=C(c4ccc(Cl)cc4)c4c(sc(C)c4C)-n4c(C)nnc43)nn2)C(C)(C)C)cc1` [Compound 16, (2S,4R)-1-((S)-18-(tert-butyl)-1-(1-(2-(2-((S)-4-(4-chlorophenyl)-2,3,9-trimethyl-6H-thieno[3,2-f][1,2,4]triazolo[4,3-a][1,4]diazepin-6-yl)acetamido)ethyl)-1H-1,2,3-triazol-4-yl)-16-oxo-2,5,8,11,14-pentaoxa-17-azanonadecan-19-oyl)-4-hydroxy-N-(4-(4-methylthiazol-5-yl)benzyl)pyrrolidine-2-carboxamide]: the Kd came to 0.033 ± 0.005 µM at VHL/EloB/EloC (VBC), 0.0158 ± 0.002 µM on BRD4^BD2, 0.049 ± 0.006 µM in data set [3] and 0.033 ± 0.005 µM in data set [4]. Moreover, the “AUC (area under the dose-response curve)” value at BRD4 [1] is reported as 900. Moreover, the DC50 at BRD4 [1] is more than 10 µM. On BRD4-NanoLuc, the “Availability Index” value is on record as 164.81. Moreover, the IC50 at BRD4-NanoLuc (setting [6]) came to 18 µM; at BRD4-NanoLuc (setting [7]), 0.11 µM. For the same molecule, on BRD4 [2], the “Initial Degradation Rate” value was 0.08 %/min. The “α (cooperativity, KLP/KLPT)” value in data set [3] came out at 0.7; in data set [4], 1.

Usually Dmax stands for the greatest extent of degradation seen. `Cc1ncsc1-c1ccc(CNC(=O)[C@@H]2C[C@@H](O)CN2C(=O)[C@@H](NC(=O)COCCOCCOCc2cn(CCNC(=O)C[C@@H]3N=C(c4ccc(Cl)cc4)c4c(sc(C)c4C)-n4c(C)nnc43)nn2)C(C)(C)C)cc1` [Compound 14, (2S,4R)-1-((S)-12-(tert-butyl)-1-(1-(2-(2-((S)-4-(4-chlorophenyl)-2,3,9-trimethyl-6H-thieno[3,2-f][1,2,4]triazolo[4,3-a][1,4]diazepin-6-yl)acetamido)ethyl)-1H-1,2,3-triazol-4-yl)-10-oxo-2,5,8-trioxa-11-azatridecan-13-oyl)-4-hydroxy-N-(4-(4-methylthiazol-5-yl)benzyl)pyrrolidine-2-carboxamide]: the Kd on VHL/EloB/EloC (VBC) (setting [5]) worked out at 0.026 ± 0.005 µM; at BRD4^BD2, 0.0096 ± 0.0009 µM; in data set [3], 0.0265 ± 0.004 µM; in data set [4], 0.033 ± 0.004 µM. Moreover, at BRD4 [1], the Dmax was determined as 69%. The “AUC (area under the dose-response curve)” value at BRD4 [1] is 460. This molecule came in with a DC50 at BRD4 [1] of 2.26 µM. Further, on BRD4-NanoLuc, the “Availability Index” value turned out to be 126.63. Moreover, the IC50 came out at 12.6 µM on BRD4-NanoLuc (setting [6]) and 0.1 µM on BRD4-NanoLuc (setting [7]). The “Initial Degradation Rate” value on BRD4 [2] worked out at 0.46 %/min. Moreover, the results for the “α (cooperativity, KLP/KLPT)” value in data set [3] and in data set [4] were 1 and 0.8, respectively.

As to `Cc1ncsc1-c1ccc(CNC(=O)[C@@H]2C[C@@H](O)CN2C(=O)[C@@H](NC(=O)COCc2cn(CCNC(=O)C[C@@H]3N=C(c4ccc(Cl)cc4)c4c(sc(C)c4C)-n4c(C)nnc43)nn2)C(C)(C)C)cc1` [Compound 12, (2S,4R)-1-((S)-2-(2-((1-(2-(2-((S)-4-(4-chlorophenyl)-2,3,9-trimethyl-6H-thieno[3,2-f][1,2,4]triazolo[4,3-a][1,4]diazepin-6-yl)acetamido)ethyl)-1H-1,2,3-triazol-4-yl)methoxy)acetamido)-3,3-dimethylbutanoyl)-4-hydroxy-N-(4-(4-methylthiazol-5-yl)benzyl)pyrrolidine-2-carboxamide], the Kd at VHL/EloB/EloC (VBC) (setting [5]) stood at 0.022 ± 0.002 µM; on BRD4^BD2, 0.0205 ± 0.0012 µM; in data set [3], 0.006 ± 0.001 µM; in data set [4] it was 0.031 ± 0.004 µM. The Dmax at BRD4 [1] was found to be 91%. In addition, the “AUC (area under the dose-response curve)” value at BRD4 [1] was 192. The molecule further gave a 50% degradation concentration (DC50) at BRD4 [1] of 0.518 µM. At BRD4-NanoLuc, the “Availability Index” value turned out to be 264.47. Further, the values for the IC50 on BRD4-NanoLuc (setting [6]) and on BRD4-NanoLuc (setting [7]) were 21.6 µM and 0.08 µM, respectively. The “Initial Degradation Rate” value at BRD4 [2] is recorded as 1.38 %/min. Also, the “α (cooperativity, KLP/KLPT)” value in data set [3] is 3.7; in data set [4] it was 0.7.
